Experimental data from patent US20230220481A1, “Method for Determining Sensitivity to 2,2'-Dithio-bis-Ethane Sulfonate” (Lantern Pharma Inc., priority 2020, published 2023).

Columns and labels:
[1] = system: Non-small cell lung cancer cell line HCC827; experiment: Gene expression level changes by whole transcriptome profiling (RNAseq) in HCC827 cells; format: cell-based; settings: 2 h treatment, 1 mM and 15 mM, versus untreated control
From the text: Another embodiment includes a method for treating or determining the sensitivity of non-small cell cancer to a 2,2′-dithio-bis-ethane sulfonate treatment by assessing the level of NRF2 (SEQ ID NO: 1) expression and at least one gene selected from the group consisting of: NQO1 (SEQ ID NO: 2), PHGDH (SEQ ID NO: 3), HMOX1 (SEQ ID NO: 4), SLC7A11 (SEQ ID NO: 5), SRXN1 (SEQ ID NO: 6), SOX2(SEQ ID NO: 7), GPX2 (SEQ ID NO: 8), GPX3 (SEQ ID NO: 9), and GPX7(SEQ ID NO: 10). For illustration, non-small cell lung cancer cell line HCC827 was treated for 2 h with 2,2′-dithio-bis-ethane sulfonate alone at concentrations of 1 mM and 15 mM and gene expression level changes were measured by whole transcriptome profiling using RNAseq. A control sample with no treatment for the same duration was used as the baseline gene expression level. A greater than 1.5 to 2-fold expression level change can be indicative of 2, 2′-dithio-bis-ethane sulfonate sensitivity.
Non-small cell lung cancer cell line HCC827 was treated for 2 h with disodium 2,2′-dithio-bis-ethane sulfonate alone at concentrations of 1 mM and 15 mM and gene expression level changes were measured by whole transcriptome profiling using RNAseq. A control sample with no treatment for the same duration was used as the baseline gene expression level. […]

[2] = system: nuclear factor erythroid 2-related factor 2 (Nrf2); experiment: Induction of nuclear expression of Nrf2 in NGF-differentiated PC12 cells, western blotting; format: cell-based, rat; settings: PC12 neuron-like cells
Protocol: PC12 cells were suspended in DMEM containing 7.5% inactivated fetal bovine serum and 7.5% inactivated horse serum. After seeding onto a type I collagen-coated 100 mm culture dish, these cells were incubated for 7 days in the presence of 100 ng/mL NGF for priming. Culture medium was then replaced with Neurobasal™ medium supplemented with N-2 supplement and 2 mM glutamine containing NGF 30 ng/mL, and cells were incubated again for 3 days for differentiation into neuron-like cells. Next, these cells were treated with 2,2′-dithio-bis-ethane sulfonate 6 mM for 1, 2, 4 and 8 hours, or with a known Nrf2 activator, tert-butylhydroquinone (t-BHQ) 30 μM for 3 hours. Nuclear proteins were then extracted from the cells for detection of nuclear expression of Nrf2 by western blotting.

Row | Compound | gene expression level change of NRF2 biomarker genes (NQO1, PHGDH, HMOX1, SLC7A11, SRXN1, SOX2, GPX2, GPX3, GPX7) [1] | time at which nuclear expression of Nrf2 started after the start of treatment ([2]; 6 mM) | time until which apparent expression of Nrf2 persisted after the start of treatment ([2]; 6 mM) | induction of nuclear expression of Nrf2 ([2]; 6 mM, 1, 2, 4 and 8 hours) | induction of nuclear expression of Nrf2 ([2]; 30 μM, 3 hours)
1 | O=S(=O)([O-])CCSSCCS(=O)(=O)[O-].[Na+].[Na+] [2,2′-dithio-bis-ethane sulfonate, disodium 2,2′-dithio-bis-ethane sulfonate] | nine genes are upregulated | 1 h | 8 h | induction of nuclear expression of Nrf2 | –
2 | CC(C)(C)c1cc(O)ccc1O [t-BHQ, tert-butylhydroquinone, reference compound] | – | – | – | – | induction of nuclear expression of Nrf2
